From PubChem BioAssay AID248 (DTP/NCI, 2004)
Several values for one entry are separate records, joined by “and”; a condition that tells them apart may be missing. Equal entries are not always repeated. Toxic doses and inconclusive results are not listed. Rule as the data show it: active = T/C of 150% or more; inactive = T/C below 125%.

Test system: L1210 leukemia ip in BDF1 mice, survival T/C
Assay: NCI In Vivo Anticancer Drug Screen. Data for tumor model L1210 Leukemia (intraperitoneal) in B6D2F1 (BDF1) mice
Settings: endpoint: mean survival time, higher = longer survival
Summary of the method: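 Mice bearing the transplanted tumor received compound or vehicle. Survival of the treated group was divided by that of the vehicle-treated control group to give the ratio.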

[1] = dose: 50.0 mg/kg/injection, schedule: Q01DX001 (ip), vehicle: saline
[2] = dose: 100.0 mg/kg/injection, schedule: Q01DX001 (ip), vehicle: saline
[3] = dose: 200.0 mg/kg/injection, schedule: Q01DX001 (ip), vehicle: saline
[4] = dose: 400.0 mg/kg/injection, schedule: Q01DX001 (ip), vehicle: saline
[5] = dose: 100.0 mg/kg/injection, schedule: Q04DX002 (ip), vehicle: Klucel (hydroxypropylcellulose) (HPC)
[6] = dose: 200.0 mg/kg/injection, schedule: Q04DX002 (ip), vehicle: Klucel (hydroxypropylcellulose) (HPC)
[7] = dose: 400.0 mg/kg/injection, schedule: Q04DX002 (ip), vehicle: Klucel (hydroxypropylcellulose) (HPC)
[8] = dose: 50.0 mg/kg/injection, schedule: Q01DX009 (ip), vehicle: saline with Tween-80
[9] = dose: 100.0 mg/kg/injection, schedule: Q01DX001 (ip), vehicle: saline with Tween-80
[10] = dose: 100.0 mg/kg/injection, schedule: Q04DX002 (ip), vehicle: saline with Tween-80
[11] = dose: 200.0 mg/kg/injection, schedule: Q01DX001 (ip), vehicle: saline with Tween-80
[12] = dose: 200.0 mg/kg/injection, schedule: Q04DX002 (ip), vehicle: saline with Tween-80
[13] = dose: 200.0 mg/kg/injection, schedule: Q04DX003 (ip), vehicle: saline with Tween-80
[14] = dose: 400.0 mg/kg/injection, schedule: Q04DX002 (ip), vehicle: saline with Tween-80
[15] = dose: 25.0 mg/kg/injection, schedule: Q01DX009 (ip), vehicle: saline with Tween-80
[16] = dose: 50.0 mg/kg/injection, schedule: Q04DX003 (ip), vehicle: saline with Tween-80
[17] = dose: 100.0 mg/kg/injection, schedule: Q04DX003 (ip), vehicle: saline with Tween-80
[18] = dose: 75.0 mg/kg/injection, schedule: Q01DX001 (ip), vehicle: saline
[19] = dose: 150.0 mg/kg/injection, schedule: Q01DX001 (ip), vehicle: saline
[20] = dose: 100.0 mg/kg/injection, schedule: Q01DX001 (ip), vehicle: carboxymethylcellulose (CMC)
[21] = dose: 200.0 mg/kg/injection, schedule: Q01DX001 (ip), vehicle: carboxymethylcellulose (CMC)
[22] = dose: 400.0 mg/kg/injection, schedule: Q01DX001 (ip), vehicle: carboxymethylcellulose (CMC)
[23] = dose: 400.0 mg/kg/injection, schedule: Q04DX003 (ip), vehicle: saline with Tween-80

Measured: T/C

Cc1ncc(CO)c(COCCC(C)C)c1O
inactive: dose: 100.0 mg/kg/injection, schedule: Q04DX002 (ip), vehicle: saline 95 % of control | dose: 200.0 mg/kg/injection, schedule: Q04DX002 (ip), vehicle: saline 98 % of control

O=c1ccn(Cc2ccccc2)c(=S)[nH]1
inactive: [1] 97 % of control | [2] 94 % of control | [3] 97 % of control | [4] 100 % of control

CCCC[P+](CCCC)(CCCC)Cc1ccccc1
inactive: dose: 5.0 mg/kg/injection, schedule: Q01DX001 (ip), vehicle: saline 100 % of control | dose: 10.0 mg/kg/injection, schedule: Q01DX001 (ip), vehicle: saline 119 % of control | dose: 12.5 mg/kg/injection, schedule: Q04DX003 (ip), vehicle: Klucel (hydroxypropylcellulose) (HPC) 104 % of control | dose: 20.0 mg/kg/injection, schedule: Q01DX001 (ip), vehicle: saline 98 % of control | dose: 25.0 mg/kg/injection, schedule: Q04DX003 (ip), vehicle: Klucel (hydroxypropylcellulose) (HPC) 104 % of control | dose: 40.0 mg/kg/injection, schedule: Q01DX001 (ip), vehicle: saline 96 % of control

O=C(O)CSC(SCC(=O)O)(c1ccccc1)c1ccccc1
inactive: [5] 88 % of control | [6] 104 % of control | [7] 102 % of control

Cc1c(Cl)cccc1NC(=O)Nc1cccc2c(O)cccc12
inactive: [8] 92 % of control | [9] 89 % of control | [10] 86 % of control and 89 % of control | [11] 90 % of control | [12] 86 % of control and 91 % of control | [13] 88 % of control | dose: 400.0 mg/kg/injection, schedule: Q01DX001 (ip), vehicle: saline with Tween-80 89 % of control | dose: 400.0 mg/kg/injection, schedule: Q01DX009 (ip), vehicle: saline with Tween-80 94 % of control and 87 % of control | [14] 87 % of control and 89 % of control

O=C(OC1CSC(OC(=O)c2ccccc2)CS1)c1ccccc1 (stereo not drawn)
inactive: [10] 95 % of control | [12] 95 % of control | [14] 91 % of control

O=C(NC(=S)Nc1ccc(F)cc1)c1cccc([N+](=O)[O-])c1
inactive: dose: 12.5 mg/kg/injection, schedule: Q01DX009 (ip), vehicle: saline with Tween-80 97 % of control and 98 % of control | [15] 94 % of control and 97 % of control | [16] 100 % of control | [9] 97 % of control | [10] 101 % of control | [17] 97 % of control | [11] 95 % of control | [12] 93 % of control and 97 % of control

CC(=O)ONC(=O)C(N)=O
inactive: [1] 95 % of control | [2] 101 % of control | [3] 95 % of control | [4] 103 % of control

O=[N+]([O-])c1ccc(\C=C/C=C/C=C/C2(CCl)OCCO2)cc1
inactive: [9] 91 % of control | [11] 87 % of control

CC1C[N-]CC(C)C1.[CH-]=C(C)C.[Cl][Pt+2][Cl] (stereo not drawn)
inactive: dose: 50.0 mg/kg/injection, schedule: Q04DX003 (ip), vehicle: saline 115 % of control | dose: 100.0 mg/kg/injection, schedule: Q04DX003 (ip), vehicle: saline 111 % of control

CC(C)(C)N1CCC1CO (stereo not drawn)
inactive: [18] 106 % of control | [19] 97 % of control

Cc1cc(=O)cc(S)[nH]1
inactive: [20] 94 % of control | [21] 100 % of control | [22] 91 % of control

CC(C)(C)c1cccc(C(=O)O)c1O
inactive: [20] 97 % of control | [21] 97 % of control | [22] 90 % of control

CC(C)Cc1ccc(C[N+]23CN4CN(CN(C4)C2)C3)cc1
inactive: [18] 100 % of control | [19] 96 % of control | dose: 300.0 mg/kg/injection, schedule: Q01DX001 (ip), vehicle: saline 102 % of control

COc1c2ccoc2nc2c(OC)c(OCC(O)C(C)(C)O)ccc12 (stereo not drawn)
inactive: dose: 50.0 mg/kg/injection, schedule: Q01DX Z (ip), vehicle: carboxymethylcellulose (CMC) 97 % of control | dose: 100.0 mg/kg/injection, schedule: Q01DX Z (ip), vehicle: carboxymethylcellulose (CMC) 100 % of control

NC(=O)c1cc(=O)n(C2OC(CO)C(O)C2O)c2nc(N)nc(N)c12 (stereo not drawn)
inactive: dose: 12.5 mg/kg/injection, schedule: Q01DX005 (ip), vehicle: water 93 % of control | dose: 25.0 mg/kg/injection, schedule: Q01DX005 (ip), vehicle: water 90 % of control | dose: 50.0 mg/kg/injection, schedule: Q01DX005 (ip), vehicle: water 90 % of control | dose: 100.0 mg/kg/injection, schedule: Q01DX005 (ip), vehicle: water 90 % of control | dose: 200.0 mg/kg/injection, schedule: Q01DX005 (ip), vehicle: water 93 % of control

COC1OC(CBr)C(OC(C)=O)C(OC(C)=O)C1OC(C)=O (stereo not drawn)
inactive: [17] 93 % of control | [13] 98 % of control | [23] 98 % of control

CCOC(=O)CC(SP(=S)(Oc1ccccc1)Oc1ccccc1)C(=O)OCC (stereo not drawn)
inactive: dose: 100.0 mg/kg/injection, schedule: Q04DX002 (sc), vehicle: olive oil, sesame oil, peanut oil 100 % of control | dose: 200.0 mg/kg/injection, schedule: Q04DX002 (sc), vehicle: olive oil, sesame oil, peanut oil 103 % of control | dose: 400.0 mg/kg/injection, schedule: Q04DX002 (sc), vehicle: olive oil, sesame oil, peanut oil 93 % of control

CC(=O)OCCc1cccc(C)c1
inactive: [5] 104 % of control | [6] 115 % of control | [7] 108 % of control

CCCCCCCNC(C)=O
inactive: dose: 25.0 mg/kg/injection, schedule: Q01DX001 (ip), vehicle: saline 99 % of control | dose: 25.0 mg/kg/injection, schedule: Q01DX009 (ip), vehicle: saline 106 % of control | [1] 116 % of control | dose: 50.0 mg/kg/injection, schedule: Q01DX009 (ip), vehicle: saline 95 % of control | [9] 92 % of control | [2] 99 % of control

CC1OC1CO (stereo not drawn)
inactive: [17] 96 % of control | [13] 101 % of control | [23] 89 % of control

Cc1cc(NC(=O)Nc2ccc(C3=NCCCN3)cc2)ccc1NC(=O)Nc1ccc(C2=NCCCN2)cc1
active: dose: 7.5 mg/kg/injection, schedule: Q01DX Z (ip), vehicle: water 167 % of control | dose: 10.0 mg/kg/injection, schedule: Q01DX Z (ip), vehicle: water 220 % of control | dose: 100.0 mg/kg/injection, schedule: Q01DX009 (ip), vehicle: saline 163 % of control
inactive: dose: 3.0 mg/kg/injection, schedule: Q01DX Z (ip), vehicle: water 113 % of control | dose: 4.5 mg/kg/injection, schedule: Q01DX Z (ip), vehicle: water 119 % of control | dose: 6.0 mg/kg/injection, schedule: Q01DX Z (ip), vehicle: water 109 % of control | dose: 25.0 mg/kg/injection, schedule: Q01DX Z (oral), vehicle: water 109 % of control | dose: 50.0 mg/kg/injection, schedule: Q01DX Z (oral), vehicle: water 103 % of control | dose: 100.0 mg/kg/injection, schedule: Q01DX Z (oral), vehicle: water 105 % of control | dose: 200.0 mg/kg/injection, schedule: Q01DX Z (oral), vehicle: water 109 % of control

CCN(CC)CCOc1cc(C)ccc1C(C)C
inactive: [15] 93 % of control | dose: 50.0 mg/kg/injection, schedule: Q01DX009 (ip), vehicle: Klucel (hydroxypropylcellulose) (HPC) 102 % of control | [8] 93 % of control | dose: 50.0 mg/kg/injection, schedule: Q04DX003 (ip), vehicle: Klucel (hydroxypropylcellulose) (HPC) 100 % of control | [16] 100 % of control | [2] 98 % of control | dose: 100.0 mg/kg/injection, schedule: Q01DX009 (ip), vehicle: Klucel (hydroxypropylcellulose) (HPC) 103 % of control | dose: 100.0 mg/kg/injection, schedule: Q01DX009 (ip), vehicle: saline with Tween-80 113 % of control | dose: 100.0 mg/kg/injection, schedule: Q04DX003 (ip), vehicle: Klucel (hydroxypropylcellulose) (HPC) 96 % of control | [17] 95 % of control | [3] 113 % of control

CCCCN(CC)C(=S)S[Te](SC(=S)N(CC)CCCC)(SC(=S)N(CC)CCCC)SC(=S)N(CC)CCCC
inactive: [20] 104 % of control | [21] 101 % of control | [22] 89 % of control
